What was measured:
[1] = molecular target: GDP-bound KRAS wild-type protein (Homo sapiens, UniProt P01116); assay: Binding to KRAS by surface plasmon resonance (SPR), dissociation constant KD; conditions: Single Cycle Kinetics
Outline: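 GDP-loaded biotinylated Avi-tag RAS proteins (E. coli-expressed) captured on a Biotin CAPture chip at ~100–300 RU; single-cycle kinetics at 30°C, 100 µL/min, 75 s injections of rising compound concentrations. HBS pH 7.4 running buffer with 1 mM DTT, 10 mM MgCl2, 10 µM GDP, 4% DMSO. KD from 1:1 binding fit.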

[2] = molecular target: GDP-bound NRAS wild-type protein (Homo sapiens, UniProt P01111); assay: Binding to NRAS by surface plasmon resonance (SPR), KD and KD ratio to KRAS
Outline: (§1)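 SPR, 30°C: Avi-biotin RAS·GDP captured via Biotin CAPture (~100–300 RU); running buffer HBS pH 7.4, 1 mM DTT, 10 mM MgCl2, 0.01% Tween 20, 10 µM GDP, 4% DMSO. Single-cycle kinetics, 100 µL/min, 75 s injections; 1:1 model → KD.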

[3] = molecular target: HRAS wild-type protein (Homo sapiens, UniProt P01112); assay: Binding to HRAS by surface plasmon resonance (SPR), KD and KD ratio to KRAS
Outline: as §1

[4] = tested on: human lung cancer strain NCI-H441; assay type: cell-based
Outline: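 Proliferation was scored by […] measured after the reagent was added to cultures kept at 37°C in 5% carbon dioxide.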

[5] = tested on: human gastric cancer strain SNU-1; assay type: cell-based
Method: (§2) A test compound was dispensed into a U-bottom 384-well plate as 40 nL serially diluted dimethyl sulfoxide solutions using a liquid handler Echo (LABCYTE). As for human gastric cancer strain SNU-1 (ATCC), a cell suspension was prepared so as to have 250 cells/40 µL in an RPMI-1640 medium (Sigma) supplemented with 10% fetal bovine serum (Sigma), a 2.5 g/L D-(+)-glucose solution, 10 mmol/L HEPES, and 1 mmol/L sodium pyruvate. This cell suspension was dispensed in an amount of 40 µL per well into a plate containing the test compound, and cultured at 37°C in a 5% carbon dioxide gas incubator. Seven days later, 20 µL of CellTiter-Glo (registered trademark) (Promega) was added to each well and luminescence was measured.

[6] = tested on: human pancreatic cancer strain KP4; assay type: cell-based
Method: as §2, with “pancreatic” for “gastric”, “KP4 (Institute of Physical and Chemical Research),” for “SNU-1 (ATCC),”, “500” for “250”, “a DMEM/Ham's F-12” for “an RPMI-1640”, “(Nacalai Tesque)” for “(Sigma)”, “(Sigma).” for “(Sigma), a 2.5 g/L D-(+)-glucose solution, 10 mmol/L HEPES, and 1 mmol/L sodium pyruvate.”

[7] = tested on: human colorectal cancer strain GP2d; assay type: cell-based
Method: as §2, with “colorectal” for “gastric”, “GP2d (ECACC),” for “SNU-1 (ATCC),”, “500” for “250”, “a Dulbecco's modified Eagle” for “an RPMI-1640”, “medium” for “medium (Sigma)”, “(Sigma).” for “(Sigma), a 2.5 g/L D-(+)-glucose solution, 10 mmol/L HEPES, and 1 mmol/L sodium pyruvate.”

[8] = tested on: human gastric cancer strain GSU; assay type: cell-based
Method: as §2, with “GSU (Institute of Physical and Chemical Research),” for “SNU-1 (ATCC),”, “200” for “250”, “(Sigma).” for “(Sigma), a 2.5 g/L D-(+)-glucose solution, 10 mmol/L HEPES, and 1 mmol/L sodium pyruvate.”

[9] = tested on: human ovarian cancer strain OV7; assay type: cell-based
Method: A test compound was dispensed into a U-bottom 384-well plate as 40 nL serially diluted dimethyl sulfoxide solutions using a liquid handler Echo (LABCYTE). As for human ovarian cancer strain OV7 (ECACC), a cell suspension was prepared so as to have 250 cells/40 µL in a DMEM/Ham's F-12 medium (Nacalai Tesque) supplemented with 5% fetal bovine serum (Sigma), 0.5 µg/mL hydrocortisone, and 10 µg/mL insulin. This cell suspension was dispensed in an amount of 40 µL per well into a plate containing the test compound, and cultured at 37°C in a 5% carbon dioxide gas incubator. Seven days later, 20 µL of CellTiter-Glo (registered trademark) (Promega) was added to each well and luminescence was measured.

[10] = tested on: human bladder cancer strain UM-UC-3; assay type: cell-based
Method: as §2, with “human bladder” for “human gastric”, “strain UM-UC-3” for “strain SNU-1”, “an MEM” for “an RPMI-1640”, “medium (Nacalai Tesque)” for “medium (Sigma)”, “(Sigma), an MEM non-essential amino acids solution (100X),” for “(Sigma), a 2.5 g/L D-(+)-glucose solution, 10 mmol/L HEPES,”, “measured. […]” for “measured.”

[11] = ratio of KD for GDP-bound NRAS wild-type protein to KD for KRAS
[12] = ratio of KD for HRAS wild-type protein to KD for KRAS

Sequence of HRAS wild-type protein (P01112 whole entry): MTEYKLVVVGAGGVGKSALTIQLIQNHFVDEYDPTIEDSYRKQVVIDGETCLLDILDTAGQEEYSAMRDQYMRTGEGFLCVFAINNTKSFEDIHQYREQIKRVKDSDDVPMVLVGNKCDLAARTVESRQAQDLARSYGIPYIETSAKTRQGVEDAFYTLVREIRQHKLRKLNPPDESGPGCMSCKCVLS
Sequence of GDP-bound NRAS wild-type protein (P01111 whole entry): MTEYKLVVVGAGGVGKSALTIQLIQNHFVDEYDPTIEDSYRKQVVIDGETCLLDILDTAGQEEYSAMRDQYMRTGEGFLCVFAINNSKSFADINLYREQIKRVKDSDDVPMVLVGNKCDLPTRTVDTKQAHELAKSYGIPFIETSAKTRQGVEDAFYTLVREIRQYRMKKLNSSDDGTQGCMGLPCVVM
Sequence of GDP-bound KRAS wild-type protein (P01116 1-188 isoform P01116-2): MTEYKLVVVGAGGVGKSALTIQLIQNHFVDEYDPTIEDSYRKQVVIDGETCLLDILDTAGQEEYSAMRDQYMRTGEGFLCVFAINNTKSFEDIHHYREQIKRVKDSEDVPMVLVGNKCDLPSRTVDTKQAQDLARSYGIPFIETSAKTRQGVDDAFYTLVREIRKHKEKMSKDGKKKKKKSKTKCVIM

Row | Kd [1] | IC50 [4] | IC50 [5] | IC50 [6] | IC50 [7] | IC50 [8] | IC50 [9] | IC50 [10] | SMILES | NRAS /KRAS [2, 11] | HRAS /KRAS [3, 12] | NRAS /KRAS ([2]; ratio of the KD value with respect to GDP-bound NRAS wild-type protein to the KD value with respect to KRAS) | HRAS /KRAS ([3]; ratio of the KD value with respect to HRAS wild-type protein to the KD value with respect to KRAS)
1 | 0.022 nM | 1.9 nM | 2.1 nM | 4.2 nM | 1.5 nM | 0.6 nM | 2.1 nM | 1.5 nM | C#CC[C@H]1C(=O)N[C@@H]([C@@H](C)CC)C(=O)N(C)CC(=O)N(C)[C@H]2C/C=C\CCN(C2=O)[C@@H](Cc2ccc(C)cc2)C(=O)N(C)CC(=O)N[C@@H](CCc2cc(F)c(C(F)(F)F)c(F)c2)C(=O)N2C[C@H](OCC)C[C@H]2C(=O)N(C)C2(CCC2)C(=O)N(C)[C@@H](C2CCCC2)C(=O)N(C)[C@H](C(=O)N(C)C)CC(=O)N1C [PP3238, (2S,8S,12R,14S,20S,23S,27S,30S,36S,38Z)-20-cyclopentyl-8-[2-[3,5-difluoro-4-(trifluoromethyl)phenyl]ethyl]-12-ethoxy-N,N,4,16,19,22,26,32,35-nonamethyl-30-[(1S)-1-methylpropyl]-3,6,9,15,18,21,25,28,31,34,42-undecaoxo-27-prop-2-ynyl-2-(p-tolylmethyl)spiro[1,4,7,10,16,19,22,26,29,32,35-undecazatricyclo[34.5.1.0^10,14]dotetracont-38-ene-17,1'-cyclobutane]-23-carboxamide] | A (a compound having 10 or more and less than 20 is denoted as A) | A (a compound having 10 or more and less than 20 is denoted as A) | – | –
2 | 0.11 nM | 5.8 nM | 4 nM | 15.1 nM | 5.1 nM | 0.9 nM | 14.4 nM | 2.9 nM | CCO[C@@H]1C[C@H]2C(=O)NC3(CCCC3)C(=O)N(C)[C@@H](C3CCCC3)C(=O)N(C)[C@H](C(=O)N(C)C)CC(=O)N(C)[C@@H](CC(C)C)C(=O)N[C@@H]([C@@H](C)CC)C(=O)N(C)CC(=O)N(C)[C@H]3C/C=C\CCN(C3=O)[C@@H](Cc3ccc(C)cc3)C(=O)N(C)CC(=O)N[C@@H](CCc3cc(F)c(C(F)(F)F)c(F)c3)C(=O)N2C1 [PP3478, (2S,8S,12R,14S,20S,23S,27S,30S,36S,38Z)-20-cyclopentyl-8-[2-[3,5-difluoro-4-(trifluoromethyl)phenyl]ethyl]-12-ethoxy-27-isobutyl-N,N,4,19,22,26,32,35-octamethyl-30-[(1S)-1-methylpropyl]-3,6,9,15,18,21,25,28,31,34,42-undecaoxo-2-(p-tolylmethyl)spiro[1,4,7,10,16,19,22,26,29,32,35-undecazatricyclo[34.5.1.0^10,14]dotetracont-38-ene-17,1'-cyclopentane]-23-carboxamide] | A (a compound having 10 or more and less than 20 is denoted as A) | A (a compound having 10 or more and less than 20 is denoted as A) | – | –
3 | – | 11.1 nM | 6.6 nM | 16.8 nM | 13.7 nM | 1.2 nM | 23.6 nM | 11.5 nM | CCO[C@@H]1C[C@H]2C(=O)NC3(CCCC3)C(=O)N(C)[C@@H](C3CCCC3)C(=O)N(C)[C@H](C(=O)N(C)C)CC(=O)N(C)[C@@H](CC(C)C)C(=O)N[C@@H]([C@@H](C)CC)C(=O)N(C)CC(=O)N(C)[C@H]3C/C(F)=C\CCN(C3=O)[C@@H](Cc3ccc(C(F)(F)F)cc3)C(=O)N(C)CC(=O)N[C@@H](CCc3cc(F)c(C(F)(F)F)c(F)c3)C(=O)N2C1 [PP3510, (2S,8S,12R,14S,20S,23S,27S,30S,36S,38E)-20-cyclopentyl-8-[2-[3,5-difluoro-4-(trifluoromethyl)phenyl]ethyl]-12-ethoxy-38-fluoro-27-isobutyl-N,N,4,19,22,26,32,35-octamethyl-30-[(1S)-1-methylpropyl]-3,6,9,15,18,21,25,28,31,34,42-undecaoxo-2-[[4-(trifluoromethyl)phenyl]methyl]spiro[1,4,7,10,16,19,22,26,29,32,35-undecazatricyclo[34.5.1.0^10,14]dotetracont-38-ene-17,1'-cyclopentane]-23-carboxamide] | B (a compound having 3 or more and less than 10 is denoted as B) | B (a compound having 3 or more and less than 10 is denoted as B) | – | –
4 | – | 0.6 nM | 5.6 nM | 4.8 nM | 3.1 nM | 1.2 nM | 8.7 nM | 1.3 nM | CCC[C@H]1C(=O)N[C@@H]([C@@H](C)CC)C(=O)N2CCC[C@H]2C(=O)N(C)[C@H]2C/C=C\CCN(C2=O)[C@@H](Cc2ccc(C(F)(F)F)cc2)C(=O)N(C)CC(=O)N[C@@H](CCc2ccc(C(F)(F)F)c(OC)c2)C(=O)N2C[C@H](OCC)C[C@H]2C(=O)N(C)C2(CCC2)C(=O)N(C)[C@@H](C2CCCC2)C(=O)N(C)[C@H](C(=O)N(C)C)CC(=O)N1C [PP2320, (1S,4S,10S,13S,17S,20S,26S,28R,32S,38S,42Z)-20-cyclopentyl-28-ethoxy-32-[2-[3-methoxy-4-(trifluoromethyl)phenyl]ethyl]-N,N,2,14,18,21,24,36-octamethyl-10-[(1S)-1-methylpropyl]-3,9,12,15,19,22,25,31,34,37,45-undecaoxo-13-propyl-38-[[4-(trifluoromethyl)phenyl]methyl]spiro[2,8, 11,14,18,21,24,30,33,36,39-undecazatetracyclo[37.5.1.0^4,8.0^26,30]pentatetracont-42-ene-23,1'-cyclobutane]-17-carboxamide] | – | – | A (a compound having 10 or more and less than 20 is denoted as A) | A (a compound having 10 or more and less than 20 is denoted as A)

From patent EP4603105A1, “PHARMACEUTICAL COMPOSITION CONTAINING CYCLIC COMPOUND HAVING SELECTIVE KRAS INHIBITORY EFFECT AGAINST HRAS AND NRAS” (CHUGAI SEIYAKU KABUSHIKI KAISHA, priority 2022, dated 2024)
